Data reported in US10968169B2, “Urea derivative” (Daiichi Sankyo Company, Limited, priority 2016, dated 2021).

These molecules were tested against tryptophanase of Bacteroides thetaiotamicron (Bacteroides thetaiotaomicron, UniProt Q8A7N2) (assay: Tryptophanase enzyme inhibitory activity (LDH-coupled NADH loss)). Conditions: L-tryptophan 10 mM, 37° C., absorbance at 340 nm; read-out: Bacteroides Activity of Inhibiting Tryptophanase (IC50).
Format: biochemical
Procedure: Tryptophanase inhibitory activity was evaluated by a method using lactate dehydrogenase (LDH). The reaction time-dependent reduction in NADH conjugated with the enzymatic reaction, with LDH, of pyruvic acid produced through the enzymatic reaction of L-tryptophan as a substrate with tryptophanase, was measured with a spectrophotometer (Phillips-R S et al., Biochemistry, 23, 6228-6234 (1984)). Enzyme inhibitory activity obtained without adding a test compound (by adding DMSO alone) in the presence of tryptophanase was used as a control. As the enzyme, tryptophanase of Bacteroides thetaiotamicron (Genbank accession number: HC914434.1) was used. A test compound solution was prepared by dissolving each test compound in DMSO in an arbitrary concentration (from 30 mM to 30 nM at 10-fold common ratio). LDH, NADH and L-tryptophan were prepared, using distilled water, respectively to concentrations of 80 units/mL, 10 mM and […]. Bacteroides tryptophanase was prepared to 30 mg/mL. A potassium phosphate buffer was used as the buffer. [table] A reaction solution A was dispensed at 284.8 μL per well into a 96-well plate, and the test compound solution was added at 3.2 μL per well to obtain a final concentration of 1/100 (reaction solution B). The reaction solution B was incubated at 37° C. for 30 minutes, L-tryptophan was added thereto at 32 μL per well to obtain a final concentration of 10 mM (reaction solution C), and the enzyme reaction was performed at 37° C. over 30 minutes with absorbance at 340 nm measured for monitoring the NADH loss. Based on the NADH loss, the tryptophanase inhibitory activity of the compound was evaluated. Besides, the following compounds were similarly tested instead of the test compound.

tryptophanase of Bacteroides thetaiotamicron, sequence (Q8A7N2 entry or part of it, change not shown): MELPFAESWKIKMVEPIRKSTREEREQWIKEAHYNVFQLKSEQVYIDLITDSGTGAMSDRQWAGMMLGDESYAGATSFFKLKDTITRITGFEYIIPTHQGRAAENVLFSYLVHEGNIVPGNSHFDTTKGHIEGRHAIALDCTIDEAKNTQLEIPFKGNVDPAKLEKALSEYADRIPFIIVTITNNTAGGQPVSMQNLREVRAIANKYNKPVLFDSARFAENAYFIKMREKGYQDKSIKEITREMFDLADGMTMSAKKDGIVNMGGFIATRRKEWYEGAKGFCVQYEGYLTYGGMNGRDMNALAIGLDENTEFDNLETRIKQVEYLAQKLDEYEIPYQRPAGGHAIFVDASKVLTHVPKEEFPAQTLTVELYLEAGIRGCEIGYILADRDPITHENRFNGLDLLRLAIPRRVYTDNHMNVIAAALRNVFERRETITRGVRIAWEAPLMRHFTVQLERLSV

| Structure (SMILES) | IC50 [µM] |
| --- | --- |
| CCC(CC)(NC(=O)Nc1ccc(OC(F)(F)F)cc1)C(=O)O [Example 1, 2-Ethyl-2-({[4-(trifluoromethoxy)phenyl]carbamoyl}amino)butanoic acid] | 3.7 |
| CC(C)CC(C)(NC(=O)Nc1ccc(OC(F)(F)F)cc1)C(=O)O (centres unmarked) [Example 3, 2-Methyl-N-{[4-(trifluoromethoxy)phenyl]carbamoyl}leucine] | 8.7 |
| O=C(Nc1ccc(OC(F)(F)F)cc1)NC(C(=O)O)(C1CC1)C1CC1 [Example 5, Dicyclopropyl({[4-(trifluoromethoxy)phenyl]carbamoyl}amino)acetic acid] | 1.7 |
| CCCC(CC)(NC(=O)Nc1ccc(OC(F)(F)F)cc1)C(=O)O (centres unmarked) [Example 6, 2-Ethyl-N-{[4-(trifluoromethoxy)phenyl]carbamoyl}norvaline] | 5.3 |
| CCC(NC(=O)Nc1ccc(OC(F)(F)F)cc1)(C(=O)O)C1CC1 (centres unmarked) [Example 7, 2-Cyclopropyl-2-({[4-(trifluoromethoxy)phenyl]carbamoyl}amino)butanoic acid] | 0.3 |
| CCC(NC(=O)Nc1ccc(OC(F)F)cc1)(C(=O)O)C1CC1 (centres unmarked) [Example 11, 2-Cyclopropyl-2-({[4-(difluoromethoxy)phenyl]carbamoyl}amino)butanoic acid] | 0.6 |
| CCC(CC)(NC(=O)Nc1ccc(SC(F)(F)F)cc1)C(=O)O [Example 14, 2-Ethyl-2-[({4-[(trifluoromethyl)sulfanyl]phenyl}carbamoyl)amino]butanoic acid] | 0.4 |
| CC[C@@](C)(NC(=O)Nc1ccc(OC(F)F)cc1F)C(=O)O [Example 17, N-{[4-(Difluoromethoxy)-2-fluorophenyl]carbamoyl}-D-isovaline] | 12.3 |
| CCC(CC)(NC(=O)Nc1ccc(C(F)(F)F)cc1)C(=O)O [Example 20, 2-Ethyl-2-({[4-(trifluoromethyl)phenyl]carbamoyl}amino)butanoic acid] | 11.6 |
| O=C(Nc1ccccc1)NC(C(=O)O)(C1CC1)C1CC1 [Example 21, Dicyclopropyl[(phenylcarbamoyl)amino]acetic acid] | 5 |
| CCC(NC(=O)Nc1ccccc1)(C(=O)O)C1CC1 (centres unmarked) [Example 22, 2-Cyclopropyl-2-[(phenylcarbamoyl)amino]butanoic acid] | 2.1 |
| CCC(NC(=O)Nc1ccc(F)cc1)(C(=O)O)C1CC1 (centres unmarked) [Example 23, 2-Cyclopropyl-2-{[(4-fluorophenyl)carbamoyl]amino}butanoic acid] | 5.2 |
| CC[C@@](C)(NC(=O)Nc1cccc(F)c1)C(=O)O [Example 24, N-[(3-Fluorophenyl)carbamoyl]-D-isovaline] | 33.2 |
| CCC(NC(=O)Nc1cccc(C#N)c1)(C(=O)O)C1CC1 (centres unmarked) [Example 32, 2-{[(3-Cyanophenyl)carbamoyl]amino}-2-cyclopropylbutanoic acid] | 1 |
| CCC(CC)(NC(=O)Nc1ccc(Cl)c(C#N)c1)C(=O)O [Example 37, 2-{[(4-Chloro-3-cyanophenyl)carbamoyl]amino}-2-ethylbutanoic acid] | 25 |
| N#CCc1ccc(NC(=O)NC(C(=O)O)(C2CC2)C2CC2)cc1 [Example 38, ({[4-(Cyanomethyl)phenyl]carbamoyl}amino)(dicyclopropyl)acetic acid] | 3.4 |
| CCC(CC)(NC(=O)Nc1ccc(-c2ccccc2F)cc1)C(=O)O [Example 42, 2-Ethyl-2-{[(2′-fluorobiphenyl-4-yl)carbamoyl]amino}butanoic acid] | 0.1 |
| CCC(CC)(NC(=O)Nc1ccc(N2CCCCC2)cc1)C(=O)O [Example 43] | 1.6 |
| CCC(CC)(NC(=O)Nc1ccc(N2CCC(F)(F)C2)cc1)C(=O)O [Example 44, 2-({[4-(3,3-Difluoropyrrolidine-1-yl)phenyl]carbamoyl}amino)-2-ethylbutanoic acid] | 2.5 |

More lines, in order of falling IC50, values ahead:

| IC50 [µM] | Structure (SMILES) |
| --- | --- |
| 35.6 | CC[C@@](C)(NC(=O)Nc1ccc(OC(F)(F)F)c(C#N)c1)C(=O)O [Example 19, N-{[3-Cyano-4-(trifluoromethoxy)phenyl]carbamoyl}-D-isovaline] |
| 20.3 | CC(NC(=O)Nc1ccc(OC(F)(F)F)cc1)(C(=O)O)C1CC1 (centres unmarked) [Example 2, 2-Cyclopropyl-2-({[4-(trifluoromethoxy)phenyl]carbamoyl}amino)propanoic acid] |
| 20.1 | CCC(CC)(NC(=O)Nc1cc(F)cc(C#N)c1)C(=O)O [Example 36, 2-{[(3-Cyano-5-fluorophenyl)carbamoyl]amino}-2-ethylbutanoic acid] |
| 15.5 | CC[C@@](C)(NC(=O)Nc1ccc(Cl)c(Cl)c1)C(=O)O [Example 29, N-[(3,4-Dichlorophenyl)carbamoyl]-D-isovaline] |
| 13.2 | CC[C@@](C)(NC(=O)Nc1cccc(Cl)c1)C(=O)O [Example 26, N-[(3-Chlorophenyl)carbamoyl]-D-isovaline] |
| 10.9 | N#Cc1ccc(NC(=O)NC(C(=O)O)(C2CC2)C2CC2)cc1 [Example 35, {[(4-Cyanophenyl)carbamoyl]amino}(dicyclopropyl)acetic acid] |
| 8.8 | CC[C@@](C)(NC(=O)Nc1ccc(OC(F)(F)F)cc1)C(=O)O [Example 4, (−)-N-{[4-(Trifluoromethoxy)phenyl]carbamoyl}-D-isovaline] |
| 6.7 | CC[C@@](C)(NC(=O)Nc1ccc(CC(F)(F)F)cc1)C(=O)O [Example 13, N-{[4-(2,2,2-Trifluoroethyl)phenyl]carbamoyl}-D-isovaline] |
| 5.8 | CCC(CC)(NC(=O)Nc1ccc(C(C)C#N)cc1)C(=O)O (centres unmarked) [Example 40, 2-({[4-(1-Cyanoethyl)phenyl]carbamoyl}amino)-2-ethylbutanoic acid] |
| 5.3 | CC[C@@](C)(NC(=O)Nc1ccc(OC(F)F)c(Cl)c1)C(=O)O [Example 18, N-{[3-Chloro-4-(difluoromethoxy)phenyl]carbamoyl}-D-isovaline] |
| 5.2 | CCC(CC)(NC(=O)Nc1ccc(C2(C#N)CC2)cc1)C(=O)O [Example 39, 2-({[4-(1-Cyanocyclopropyl)phenyl]carbamoyl}amino)-2-ethylbutanoic acid] |
| 4.2 | CCC(CC)(NC(=O)Nc1ccc(OC(F)F)cc1F)C(=O)O [Example 16, 2-({[4-(Difluoromethoxy)-2-fluorophenyl]carbamoyl}amino)-2-ethylbutanoic acid] |
| 3.2 | CCC(CC)(NC(=O)Nc1ccc(Cl)s1)C(=O)O [Example 28, 2-{[(5-Chlorothiophen-2-yl)carbamoyl]amino}-2-ethylbutanoic acid] |
| 1.9 | O=C(Nc1ccc(OC(F)F)cc1)NC(C(=O)O)(C1CC1)C1CC1 [Example 10, Dicyclopropyl({[4-(difluoromethoxy)phenyl]carbamoyl}amino)acetic acid] |
| 1.8 | N#Cc1cccc(NC(=O)NC(C(=O)O)(C2CC2)C2CC2)c1 [Example 34, {[(3-Cyanophenyl)carbamoyl]amino}(dicyclopropyl)acetic acid] |
| 0.3 | CCC(CC)(NC(=O)Nc1ccc(-c2ccccc2)cc1)C(=O)O [Example 41, 2-[(Biphenyl-4-ylcarbamoyl)amino]-2-ethylbutanoic acid] |
